{
  "source": "paper PMC5458179",
  "about": "“Oxidative DNA double strand breaks and autophagy in the antitumor effect of sterically hindered platinum(II) complexes in NSCLCs” (Oncotarget, 2017)",
  "format_in_all_cases": "cell-based, human",
  "key": {"[1]": {"system": "A549 and NCI-H1299 cancer cells", "experiment": "Colony formation assay", "details": "A549 and NCI-H1299, 7 days", "experimental": "Cells were trypsinized and plated at a density of 500 perplate. […] Cells were then fixed with 3% paraformaldehyde, stained with crystal violet and imaged with a light microscope. The experiment was performed in triplicate. The number of colonies, defined as containing > 50 cells, was counted."}, "A549 cells": {"system": "A549 cells", "experiment": "Quantification of apoptotic cells (annexin V/PI flow cytometry)", "experimental": "The role of complex 3-induced autophagy in cell death was further analyzed (Figure 6). When A549 cancer cells were treated with complex 3 of 10 μM, the protein expression of LC3-II was increased (Figure 6A). […] Treatment with complex 3 for 24 h caused a 4.5-folds increase in cells undergoing autophagy (Figure 6C). […] Moreover, Bax and Bcl-2 expressions were measured by western blot analysis of whole cell lysates.\nTo investigate the role of ROS in complex 3-induced cell death, the level of intracellular H2O2 was measured. […] Exposure of A549 cells to NAC reduced levels of LC3-II from 2.3- to 1.5-folds (Figure 8B). […] In parallel, the complex 3-induced increase ratio of Bax/Bcl-2 was suppressed by NAC (Figure 8E).\nThe mode of cell death was analyzed by flow cytometry with annexin V/propidium iodide (PI) double-staining to detect membrane events according to a previous study. After individual treatments, whole cells were collected in 4-(2-hydroxyethyl)-1-piperazineethanesulfonic acid (HEPES) buffer containing 10 mM HEPES (pH 7.4), 140 mM NaCl, and 2.5 mM CaCl2. Cells were subsequently stained with annexin V (2.5 μg/ml) and PI (2 ng/ml) for 20 min, followed by analysis by flow cytometry (Beckman Coulter). Cystograms of the four quadrants in the figure were used to distinguish normal (annexin V^−/PI^−), early apoptotic (annexin V^+/PI^−), late apoptotic(annexin V^+/PI^+), and necrotic cells (annexin V^−/PI^+). The sum of early apoptosis and late apoptosis is presented as total apoptosis."}, "p-XRCC1": {"system": "p-XRCC1", "experiment": "Immunostaining of SSB repair protein", "details": "A549, 10 μM, 24 h", "source_text": "(§1) The serine 139-phosphorylated form of chromatin-associated histone H2AX, namely γ-H2AX, is a key marker of cellular response to DDR, particularly DSBs. […] Obviously, pre-treatment of NAC could considerably alleviate the DDR triggered by complex 3 (Figure 5B). Therefore, we came to a conclusion that complex 3 caused DDR especially DSBs in A549 cells, which might happen after the increased level of intracellular ROS. In order to reveal the mechanisms underlying the enhanced DNA damage, complex 3 was studied to learn whether it could reduce the activation of DNA repair response including the co-localization of DSB repair protein MDC1/Aprataxin within nucleus. […] In order to reveal the mechanisms underlying DNA damage, complex 3 was studied to detect whether it could suppress the activation of DNA single strand break repair via the phosphorylation of SSB repair mediator/adaptor proteins XRCC1 within nucleus.\n(§2) For assessment of DSBs repair kinetics we detected the total nuclear volume for an average of 50–60 nuclei per time points and cell type. Briefly, A549 cells were grown to confluence in 35 mm petri-dishes with 0.17 mm glass bottom. […] Non-specific binding was blocked by incubation with 5% FCS/PBS/0.1% Triton X-100 for 1 h at RT. […] Numbers of γH2AX foci were counted in 50–60 nuclei and plotted over time as previously described."}, "γ-H2AX": {"system": "γ-H2AX", "experiment": "Nuclear γH2AX foci analysis", "details": "A549, 8 h and 12 h", "source_text": "as §1, §2"}, "[2]": {"system": "A549 and NCI-H1299 cancer cells", "experiment": "Mitochondrial transmembrane potential (JC-1)", "details": "A549 and NCI-H1299, 10 μM, 24 h", "source_text": "To further study the detailed process of apoptosis induced by complex 3 in NSCLC cells, we examined the mitochondrial membrane potential (ΔΨm), which is an important proapoptotic index for early apoptosis. We chose a mitochondria-specific and voltage-dependent fluorescent probe, JC-1, to observe whether there was loss in ΔΨm.\nThe electrical potential difference across inner mitochondrial membrane (ΔΨm) was monitored using the ΔΨm-specific fluorescent probe JC-1 (Molecular Probes Inc., Eugene, OR), a sensitive fluorescent dye. […] Red fluorescence is attributable to a potential-dependent aggregation in the mitochondria. Green fluorescence, reflecting the monomeric form of JC-1, appeared in the cytosol after mitochondrial membrane depolarization. Relative fluorescence intensities were monitored using the flow cytometry (FACSCalibur, Becton Dickinson), and analyzed by the software Modfit and Cell Quest (BD Biosciences, Franklin Lakes, NJ) with settings of FL1 (green) at 530 nm and FL2 (red) at 585 nm."}, "[3]": {"system": "A549 and NCI-H1299 cancer cells", "experiment": "ROS measurement (DCF fluorescence)", "details": "A549 and NCI-H1299, 10 μM", "experimental": "As excessive ROS generation is associated with cell-killing activity, we further examined whether complex 3 could also induce the formation of excessive ROS in A549 and NCI-H1299 cancer cells.\nThe generation of ROS induced by complex 3 was determined with the cell permeant fluorogenic probe 2′,7′-dichlorodihydrofluorescein diacetate (H2DCFDA; Molecular Probes, Invitrogen, Darmstadt, Germany) as described. H2DCFDA diffuses into the cell, where it is enzymatically converted by intracellular esterases and oxidized into the high fluorescence compound DCF, which allows the determination of H2O2, peroxynitrite anions and peroxyl radicals. Approximately 4×10^3 A549 and NCI-H1299 cancer cells per well were plated on white bottom 96-well plates in extracellular fluid ([…] NaCl, 3 mM KCl, 1 mM CaCl2, 1 mM MgCl2, 10 mM HEPES and 25 mM glucose; pH 7.4). […] Then, cells were loaded with […] H2DCFDA for 30 min at 37°C and 5% CO2. Then, cells DCF generation was measured over time using a fluorometer (Fluostar BMG Labtech, Offenburg, Germany) at 492 nm excitation and 520 nm emission."}, "NCI-H1299 cancer cells": {"system": "NCI-H1299 cancer cells", "experiment": "Intracellular ATP production", "details": "NCI-H1299, 10 μM, 12 h", "experimental": "(§3) Since ATP production is a significant consequence attributed to the dysfunction of mitochondrial energy production, we measured intracellular ATP levels after complex 3 treatment.\n(§4) The ATP production assay kit (Haimen, Jiangsu, China) was used to measure intracellular ATP level according to the manufacturer's instructions. […] Detection was performed using the luminometer Orion II (Berthold DS, Bleichstr, Pforzheim, Germany)."}, "A549 cancer cells": {"system": "A549 cancer cells", "experiment": "Intracellular ATP production", "details": "A549, 10 μM, 12 h", "experimental": "as §3, §4"}},
  "data": [
    {"smiles": "CC(C)C[NH+]1[C@@H]2CCCC[C@H]2[NH+](CC(C)C)[Pt-2]12[O]C(=O)CC(=O)[O]2", "note": "(stereo partly drawn) [Complex 3]", "values": [
      {"measurement": "colony formation", "setting": "[1]", "value": "significantly reduced colony formation"},
      {"measurement": "percentage of apoptosis", "setting": "A549 cells; A549, 10 μM complex 18 h, without NAC", "value": 52.5, "unit": "%"},
      {"measurement": "percentage of apoptosis", "setting": "A549 cells; A549, 5 mM NAC 2 h pretreatment then 10 μM complex 18 h", "value": 34.2, "unit": "%"},
      {"measurement": "phosphorylation of XRCC1", "setting": "p-XRCC1", "value": "suppression of phosphorylation of XRCC1 compared with oxaliplatin"},
      {"measurement": "γ-H2AX", "setting": "γ-H2AX", "value": "obvious increases in γ-H2AX"},
      {"measurement": "mitochondrial membrane potential (ΔΨm)", "setting": "[2]", "value": "remarkable decrement of ΔΨm"},
      {"measurement": "ROS production", "setting": "[3]", "value": "induced the production of significant amounts of ROS"},
      {"measurement": "ATP level, % of untreated cells", "setting": "NCI-H1299 cancer cells", "value": 31.89, "unit": "%"},
      {"measurement": "ATP level, % of untreated cells", "setting": "A549 cancer cells", "value": 19.95, "unit": "%"}
    ]}
  ]
}
